This is an account of results in US6545131B1, “Tissue specific prodrug” (priority 1997, dated 2003).

The target of data set [1] is T1, PSA (prostate specific antigen) (Homo sapiens, UniProt P07288).
T1 construct: PSA was purified from human seminal plasma; from tissue; host or cells: human seminal plasma
In words: Cleavage of AMC-labelled peptide substrates by purified PSA (fluorescence of released AMC; Lineweaver-Burke kinetics). It counts as biochemical. The method, then: (§1) The peptides discussed herein were custom synthesized by Enzyme Systems Products (Dublin, Calif.) and, after HPLC separation and purification to >95%, the molecular weights were confirmed by mass spectroscopy. All peptides had morpholinocarbonyl protecting the amino terminus and 7-amino-4-methylcoumarin (AMC) attached via an amide bond to the carboxyl group of the carboxy-terminal amino acid. Peptides were first dissolved in distilled water (5 mM) and then diluted into PSA assay buffer (50 mM Tris/0.1M NaCl pH 7.8). The glutamine-AMC peptide had the amino terminus and side chain amine unprotected and was obtained from Bachem (Torrance, Calif.).
(§2) PSA was purified from human seminal plasma as described in Christensson, et al. Eur. J. Biochem. 194:755-765, (1990). Plasmin, urokinase, tissue plasminogen activator (TPA), human plasma and porcine pancreatic kallikrein and a 1-antichymotrypsin were obtained from Calbiochem (San Diego, Calif.). All other proteases were obtained from Sigma Chemical Co. (St. Louis, Mo.). Mouse serum was obtained from East Acres Biologicals (South Bridge, Mass.). Goat and calf sera were obtained from Gibco BRL (Grand Island, N.Y.). Rat serum was obtained in-house from sacrificed animals. Human serum was obtained from volunteers.
(§3) Cleavage was studied by measuring fluorescence change secondary to AMC release. Fluorescence detection was carried out with a Fluoroskan II 96 well fluorometric plate reader (ICN Biomedicals, Costa Mesa, Calif.), with excitation wavelength 355 nm and emission wavelength 460 nm. Data were collected and analyzed using Deltasoft III software (Biometallics, Princeton, N.J.). All reactions were performed at room temperature by the addition of substrate and proteases into PSA buffer, described below, in a final volume of 200 μL. The results were determined from the initial linear increase of fluorescence and were expressed as the picomoles of AMC released per minute based upon comparison to a standard curve of the fluorescence of known amounts of AMC (i.e., fluorescence was linear form 20 to 300 picomoles of AMC). The data were analyzed by Lineweaver-Burke reciprocal plots to determine the Michaelis-Menten constant (i.e., Km) expressed as the amount of substrate needed to saturate half of the enzyme and the catalytic rate constant (i.e., kcat) expressed as the amount of substrate converted to product per time per amount of enzyme.
(§4) Each assay contains 200 picomoles of the particular protease and 0.2 mM concentration of the particular substrate (i.e., 40,000 picomoles/200 μL of assay volume). The amino acid sequences expressed in one letter amino acid code represent the following amino acid sequences in the three letter amino acid code: EHSSKLQ (Glu-His-Ser-Ser-Lys-Leu-Gln; SEQ ID NO:10), QNKISYQ (Gln-Asn-Lys-Ile-Ser-Tyr-Gln; SEQ ID NO:11), ENKISYQ (Glu-Asn-Lys-Ile-Ser-Tyr-Gln; SEQ ID NO:12), and ATKSKQH (Ala-Thr-Lys-Ser-Lys-Gln-His; SEQ ID NO:13). Determinations listed in the table were carried out with substrates at 0.2 mM concentration in the PSA assay buffer (50 mM Tris/0.1M NaCl pH 7.8). The entry “UD” stands for “undetectable” and means that at most, 0.1 pmole of substrate cleavage per minute per 200 pmole protease took place. Asterisks represent experiments not performed. Abbreviations are as follows: PSA (prostate specific antigen), Chymo (chymotrypsin), Urokin (urokinase), TPA (tissue plasminogen activator), Thromb (thrombin), Kallik (human kallikrein, hK1).
The data in Table 2 are the results of kinetic experiments with the peptide substrates used in Example 1. Experimental details are found in Example 1.
The amino acid sequences expressed in one letter amino acid code represent the following amino acid sequences in the three letter amino acid code: EHSSKLQ (Glu-His-Ser-Ser-Lys-Leu-Gln; SEQ ID NO:10), HSSKLQ (His-Ser-Ser-Lys-Leu-Gln; SEQ ID NO:7), SKLQ (Ser-Lys-Leu-Gln; SEQ ID NO:1), and ATKSKQH (Ala-Thr-Lys-Ser-Lys-Gln-His; SEQ ID NO:13). […]

For another data set, the system named is Elastase. The data set is described as follows: Peptide-AMC cleavage by purified extracellular protease. Conditions: 0.2 mM substrate, PSA assay buffer pH 7.8. The format is biochemical. How it is done: as §1, §2, §3, §4
In a further data set the target is T2, Plasmin (Homo sapiens, UniProt P00747).
T2 construct: purchased Calbiochem
Described as above. The format is biochemical. The following applies: 0.2 mM substrate, PSA assay buffer pH 7.8. How it is done:
as §1, §2, §3, §4

For the next data set, the system named is Trypsin. The data set is described as above. It counts as biochemical. The following applies: 0.2 mM substrate, PSA assay buffer pH 7.8. The method, then:
as §1, §2, §3, §4

A further data set addresses T3, chymotrypsin (Bos taurus, UniProt P00766).
T3 construct: purchased Sigma Chemical Co
Described as above. It counts as biochemical. The following applies: 0.2 mM substrate, PSA assay buffer pH 7.8. How it is done: as §1, §2, §3, §4

Another data set has as its system human kallikrein, hK1. The data set is described as above. It counts as biochemical. Conditions: 0.2 mM substrate, PSA assay buffer pH 7.8. How it is done:
as §1, §2, §3, §4

In another data set the target is T4, thrombin (Homo sapiens, UniProt P00734).
T4 construct: purchased Sigma Chemical Co
The data set is described as above. It counts as biochemical. Conditions: 0.2 mM substrate, PSA assay buffer pH 7.8. The method, then:
as §1, §2, §3, §4

Data set [2] has as its target T5, tissue plasminogen activator (TPA) (Homo sapiens, UniProt P00750).
T5 construct: purchased Calbiochem
The data set is described as above. It counts as biochemical. The following applies: 0.2 mM substrate, PSA assay buffer pH 7.8. How it is done:
as §1, §2, §3, §4

The next data set has as its target T6, urokinase (Homo sapiens, UniProt P00749).
T6 construct: purchased Calbiochem
The description is as above. The format is biochemical. The following applies: 0.2 mM substrate, PSA assay buffer pH 7.8. The method, then:
as §1, §2, §3, §4

Data set [3] can be described thus: Stability of PSA substrates in serum (AMC release). The following applies: 0.2 mM substrate. It counts as in vitro ADME.
Text: as §2, §3
Because the prodrug can be given systemically via the blood, it is useful to determine the stability of the substrates in sera from a variety of species. The substrates and experimental details are found as described in Example 1.
The amino acid sequences expressed in one letter amino acid code represent the following amino acid sequences in the three letter amino acid code: EHSSKLQ (Glu-His-Ser-Ser-Lys-Leu-Gln; SEQ ID NO:10), QNKISYQ (Gln-Asn-Lys-Ile-Ser-Tyr-Gln; SEQ ID NO:11), ENKISYQ (Glu-Asn-Lys-Ile-Ser-Tyr-Gln; SEQ ID NO:12) and ATKSKQH (Ala-Thr-Lys-Ser-Lys-Gln-His; SEQ ID NO:13). Determinations listed in the table were carried out with substrates at 0.2 mM concentration in the PSA assay buffer (50 mM Tris/0.1M NaCl pH 7.8). AMC is 7-amino-4-methylcoumarin. The human serum used was 100% for each assay. The entry “UD” stands for “undetectable”, and means that not more than 0.01 picomole of substrate per minute was cleaved.

Data set [4] has as its target T7, endoplasmic reticulum Ca2+-ATPase (SERCA), SR vesicles from rabbit skeletal muscle (Oryctolagus cuniculus, UniProt P04191).
T7 construct: sarcoplasmic reticulum (SR) vesicles prepared from rabbit skeletal muscle; from tissue; host or cells: rabbit skeletal muscle sarcoplasmic reticulum vesicles
The data set is described as follows: SERCA inhibition: 45Ca2+ uptake to sarcoplasmic reticulum vesicles. It counts as biochemical. The following applies: mean (n=3) ± standard error; 5 μg/ml SR protein, free Ca2+ 100 nM, 4 min uptake; read-out: IC50 (50% inhibition of 45Ca2+ uptake to SR vesicles). How it is done:
The primary amine-containing thapsigargin analogs of the invention have endoplasmic reticulum Ca^2+-ATPase inhibitory activity. This activity is measured as the concentration of analog needed to inhibit 50% of this ATPase (IC50). The IC50 of the analogs of the invention is desirably at most 500 nM, preferably at most 200 nM, and more preferably at most 50 nM of analog.
The inhibitory potency of thapsigargin and its analogs was determined as the concentration required to produce 50% inhibition (i.e. IC50) of ^45Ca^2+ uptake to sarcoplasmic reticulum (SR) vesicles prepared from rabbit skeletal muscle by the method of De Meis and Hasselbach (J. Biol. Chem., 246: 4759-4763, 1971). The ^45Ca^2+ uptake assay was as described previously (Christensen, et al., FEBS, 335: 345-348, 1993), with the following modifications: 5 μg/ml of SR protein was incubated at 25EC and free Ca^2+ adjusted to 100 nM using 4 min. uptake time. Under these conditions, Ca^2+ could proceed linearly with time for at least 8 minutes. Measurements of Ca^2+ within TSU cells was determined as described previously (Lin et al., The Prostate, 33:201-207, 1997).
(§5) The IC50 results are mean (n=3)±standard error. The LC50 results are mean (n=5)±standard error. The entry “ND” stands for “not determined”. Clonogenic survival not determined above 10 μM for dBTG. Analogs with −boc have a t-butoxycarbonyl (boc) protected amino group.

The next data set has as its system TSU-Pr1 cells. In words: Clonogenic survival of TSU-Pr1 cells after 72 hours exposure to TG analogs. The format is cell-based, human. Conditions: TSU-Pr1, 72 hours exposure; mean (n=5) ± standard error; read-out: LC50 (concentration needed to kill 50% of clonogenic cells). How it is done:
The primary amine-containing thapsigargin analogs of the invention have non-specific toxicity toward cells. This toxicity is measured as the concentration of analog needed to kill 50% of clonogenic cells (LC50). The LC50 of the analogs of the invention is desirably at most 20 μM, preferably at most 5 μM, and more preferably at most 500 nM of analog.
Percentage clonogenic survival of TSU-Pr1 (2×10^5 cells) following 72 hours of exposure to varying concentrations of TG analogs was performed as described in Martikainen et al. Cancer Res., 51, 4693-4700 (1991).
as §5
The androgen responsive PSA-producing LNCaP and androgen independent PSA non-producing TSU-Pr1 are human prostate cancer lines were obtained from ATCC (Rockville, Md.) and maintained by serial passage in RPMI 1640 media containing 10% fetal calf serum with 100 units/ml penicillin G, and 100 units/ml streptomycin sulfate (antibiotics from M.A. Bioproducts, Walkerville, Md.) as standard media in 5% CO2/95% air at 37° C. The origins and characteristics of the LNCaP and TSU-Pr1 cell lines are described in Horoszewicz, et al., Cancer Res., 43:1809-1818, (1980)and Iizumi, et al., J. Urol, 137: 1304-1306, (1987).

[5] abbreviates: PSA substrate, PSA assay buffer pH 7.8, Lineweaver-Burke.

Each structure is given as a SMILES string. Starred links: 1 amine or outer side, 2 acyl side, 3 side chain; linkers in the order of their positions; H or OH if unused. Residues, ends and D or L forms follow the SMILES beside them. *: point of attachment. AMC = Cc1cc(=O)oc2cc(N*)ccc12; Morpholide = C1CN(*)CCO1; CO = O=C([*:1])[*:2]

T1 sequence (P07288 25-261): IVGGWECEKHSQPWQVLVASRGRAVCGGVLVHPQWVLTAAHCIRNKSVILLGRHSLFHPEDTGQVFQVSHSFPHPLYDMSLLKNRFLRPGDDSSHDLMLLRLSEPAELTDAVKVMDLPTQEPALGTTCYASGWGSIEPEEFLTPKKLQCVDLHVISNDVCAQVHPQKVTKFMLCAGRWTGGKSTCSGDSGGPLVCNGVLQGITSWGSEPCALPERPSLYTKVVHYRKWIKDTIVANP
T7 sequence (P04191 1-994 isoform P04191-2): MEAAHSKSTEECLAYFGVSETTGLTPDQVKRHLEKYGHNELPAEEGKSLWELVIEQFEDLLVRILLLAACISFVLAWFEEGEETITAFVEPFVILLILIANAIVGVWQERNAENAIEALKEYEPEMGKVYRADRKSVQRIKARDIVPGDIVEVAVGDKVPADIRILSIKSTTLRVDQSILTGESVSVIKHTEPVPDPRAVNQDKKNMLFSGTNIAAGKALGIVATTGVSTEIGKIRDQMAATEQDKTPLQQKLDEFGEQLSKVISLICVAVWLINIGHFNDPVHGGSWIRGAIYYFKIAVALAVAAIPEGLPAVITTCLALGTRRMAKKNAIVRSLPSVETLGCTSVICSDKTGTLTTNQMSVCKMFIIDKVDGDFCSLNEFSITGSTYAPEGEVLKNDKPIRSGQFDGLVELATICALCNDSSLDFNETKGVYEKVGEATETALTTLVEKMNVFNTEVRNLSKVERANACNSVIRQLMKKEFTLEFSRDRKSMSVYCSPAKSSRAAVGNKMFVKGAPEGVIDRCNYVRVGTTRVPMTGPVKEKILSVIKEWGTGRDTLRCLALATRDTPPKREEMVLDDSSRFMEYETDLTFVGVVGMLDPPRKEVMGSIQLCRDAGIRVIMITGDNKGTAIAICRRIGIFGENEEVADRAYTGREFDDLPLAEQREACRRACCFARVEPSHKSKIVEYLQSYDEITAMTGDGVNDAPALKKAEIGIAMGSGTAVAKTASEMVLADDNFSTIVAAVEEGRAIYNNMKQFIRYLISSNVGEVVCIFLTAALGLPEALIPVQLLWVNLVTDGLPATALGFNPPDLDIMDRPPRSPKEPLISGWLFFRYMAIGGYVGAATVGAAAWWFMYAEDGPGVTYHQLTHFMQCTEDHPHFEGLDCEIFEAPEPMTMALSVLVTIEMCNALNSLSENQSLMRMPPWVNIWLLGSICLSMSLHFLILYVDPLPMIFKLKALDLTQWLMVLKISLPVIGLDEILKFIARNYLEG
T5 sequence (P00750 36-562, species assumed): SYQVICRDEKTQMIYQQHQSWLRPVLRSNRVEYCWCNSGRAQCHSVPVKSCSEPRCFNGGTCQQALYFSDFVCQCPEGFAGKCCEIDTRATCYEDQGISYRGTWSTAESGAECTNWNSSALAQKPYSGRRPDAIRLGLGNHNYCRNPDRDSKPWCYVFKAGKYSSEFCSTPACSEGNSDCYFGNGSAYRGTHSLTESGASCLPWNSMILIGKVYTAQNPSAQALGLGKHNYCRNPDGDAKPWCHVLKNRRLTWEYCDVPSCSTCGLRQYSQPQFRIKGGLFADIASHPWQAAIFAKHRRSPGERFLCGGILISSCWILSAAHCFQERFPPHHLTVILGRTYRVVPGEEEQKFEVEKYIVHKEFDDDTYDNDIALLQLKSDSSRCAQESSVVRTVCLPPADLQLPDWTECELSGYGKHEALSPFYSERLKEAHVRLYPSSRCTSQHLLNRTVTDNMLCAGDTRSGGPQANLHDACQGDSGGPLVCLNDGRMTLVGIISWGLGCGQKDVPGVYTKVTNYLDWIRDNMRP
T2 sequence (P00747 581-810 limits assumed, species assumed): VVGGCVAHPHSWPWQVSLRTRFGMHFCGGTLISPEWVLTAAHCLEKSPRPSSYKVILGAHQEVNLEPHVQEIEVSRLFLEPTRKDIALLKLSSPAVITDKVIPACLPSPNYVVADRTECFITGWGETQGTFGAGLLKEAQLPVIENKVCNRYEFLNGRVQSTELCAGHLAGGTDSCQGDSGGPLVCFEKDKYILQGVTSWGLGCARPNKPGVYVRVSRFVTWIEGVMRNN
T2 sequence (P00747 97-580 partner limits assumed, species assumed): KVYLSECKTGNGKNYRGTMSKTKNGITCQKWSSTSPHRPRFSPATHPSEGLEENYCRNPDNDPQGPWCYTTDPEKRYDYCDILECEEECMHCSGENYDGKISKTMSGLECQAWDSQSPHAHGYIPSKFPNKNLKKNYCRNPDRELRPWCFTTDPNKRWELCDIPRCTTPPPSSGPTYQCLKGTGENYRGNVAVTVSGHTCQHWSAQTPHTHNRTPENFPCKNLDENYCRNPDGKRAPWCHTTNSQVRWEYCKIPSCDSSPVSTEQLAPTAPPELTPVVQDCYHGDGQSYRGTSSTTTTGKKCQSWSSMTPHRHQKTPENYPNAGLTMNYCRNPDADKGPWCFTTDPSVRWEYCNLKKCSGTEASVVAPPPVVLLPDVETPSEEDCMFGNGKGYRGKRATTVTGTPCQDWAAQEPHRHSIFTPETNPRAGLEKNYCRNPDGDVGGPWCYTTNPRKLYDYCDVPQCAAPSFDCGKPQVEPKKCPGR

As for `Cc1cc(=O)oc2cc(NC(=O)[C@H](Cc3c[nH]cn3)NC(=O)[C@H](CCC(N)=O)NC(=O)[C@H](CCCCN)NC(=O)[C@H](CO)NC(=O)[C@H](CCCCN)NC(=O)[C@@H](NC(=O)[C@H](C)NC(=O)N3CCOCC3)[C@@H](C)O)ccc12` [ATKSKQH, Ala-Thr-Lys-Ser-Lys-Gln-His] ({Morpholide-CO}-ATKSKQH-{AMC}), in [1] (0.2 mM substrate, PSA assay buffer pH 7.8, room temperature), the “Picomoles of substrate cleaved/minute/200 pmoles of indicated protease: PSA” value is on record as 16.0 picomoles/minute/200 pmoles pr. Moreover, in data set [1] (setting [5]), the Kcat stood at 0.0091 s⁻¹ and the Km is 310 µM. Besides, the “Picomoles of substrate cleaved/minute/200 pmoles of indicated protease: Elastase” value with Elastase was “UD (at most, 0.1 pmole of substrate cleavage per minute per 200 pmole protease took place)”. The “Picomoles of substrate cleaved/minute/200 pmoles of indicated protease: Plasmin” value on Plasmin was “UD (at most, 0.1 pmole of substrate cleavage per minute per 200 pmole protease took place)”. The “Picomoles of substrate cleaved/minute/200 pmoles of indicated protease: Trypsin” value in the data set with Trypsin is “UD (at most, 0.1 pmole of substrate cleavage per minute per 200 pmole protease took place)”. In addition, the “Picomoles of substrate cleaved/minute/200 pmoles of indicated protease: Chymo” value on chymotrypsin is listed as 38.8 picomoles/minute/200 pmoles pr. In addition, the “Picomoles of substrate cleaved/minute/200 pmoles of indicated protease: Kallik” value in the data set with human kallikrein, hK1 was “UD (at most, 0.1 pmole of substrate cleavage per minute per 200 pmole protease took place)”. For the same compound, the “Picomoles of substrate cleaved/minute/200 pmoles of indicated protease: Thromb” value on thrombin is on record as 0.2 picomoles/minute/200 pmoles pr. Besides, in [2], the “Picomoles of substrate cleaved/minute/200 pmoles of indicated protease: TPA” value is reported as “UD (at most, 0.1 pmole of substrate cleavage per minute per 200 pmole protease took place)”. For the same compound, the “Picomoles of substrate cleaved/minute/200 pmoles of indicated protease: Urokin” value at urokinase is recorded as “UD (at most, 0.1 pmole of substrate cleavage per minute per 200 pmole protease took place)”. Moreover, in [3], the “picomles AMC released/minute: Calf” value was “UD (not more than 0.01 picomole of substrate per minute was cleaved)”, the “picomles AMC released/minute: Fetal Calf” value amounted to 1.19 picomoles/minute, the “picomles AMC released/minute: Goat” value was determined as 0.35 picomoles/minute and the “picomles AMC released/minute: Mouse” value is listed as 0.60 picomoles/minute. In addition, the “picomles AMC released/minute: Rat” value in data set [3] is listed as 4.31 picomoles/minute. Besides, the “picomles AMC released/minute: Human” value in data set [3] (human serum 100%) is “UD (not more than 0.01 picomole of substrate per minute was cleaved)”.
As to `CC=C(C)C(=O)OC1C(C)=C2C(C1OC(=O)CCCCCCC)C(C)(OC(C)=O)CC(OC(=O)C=Cc1ccc(N)cc1)C1(O)C2OC(=O)C1(C)O` (stereo not shown) [ACT, 8-O-(4-aminocinnamoyl)-8-O-debutanoylthapsigargin], the half-maximal inhibitory concentration (IC50) in [4] turned out to be 18.7 ± 0.2 nM. Further, the CC50 in the data set with TSU-Pr1 cells came to 100 ± 6 nM.
